Laboratory results from patent publication US20260297070A1, “CYCLIC [COMPOUND LEFT OUT] WRN INHIBITORS” (Nimbus Wadjet, Inc., priority 2023, published 2026).

molecular target: T1, human Werner helicase (WRN-BV08, Uniprot Q14191, amino acids 517-1235 with L1074F point mutation) (Homo sapiens, UniProt Q14191, L1074F); assay: WRN (BV08) ADP-Glo Assay; type: biochemical; details: 0.15 nM WRN, 5 μM ATP, 0.1 nM DNA duplex, 15 min preincubation, 60 min at 25° C., pH 7.5, 1% DMSO; read-out: ADP-Glo_hWRN_IC50
T1 construct: Uniprot Q14191, amino acids 517-1235 with L1074F point mutation; TEV-cleavable 8×His (C, cleaved yes); made in house; host or cells: Sf9 insect cells (baculovirus)
T1 sequence (Q14191 with tags, fused parts or gaps L1074F limits assumed): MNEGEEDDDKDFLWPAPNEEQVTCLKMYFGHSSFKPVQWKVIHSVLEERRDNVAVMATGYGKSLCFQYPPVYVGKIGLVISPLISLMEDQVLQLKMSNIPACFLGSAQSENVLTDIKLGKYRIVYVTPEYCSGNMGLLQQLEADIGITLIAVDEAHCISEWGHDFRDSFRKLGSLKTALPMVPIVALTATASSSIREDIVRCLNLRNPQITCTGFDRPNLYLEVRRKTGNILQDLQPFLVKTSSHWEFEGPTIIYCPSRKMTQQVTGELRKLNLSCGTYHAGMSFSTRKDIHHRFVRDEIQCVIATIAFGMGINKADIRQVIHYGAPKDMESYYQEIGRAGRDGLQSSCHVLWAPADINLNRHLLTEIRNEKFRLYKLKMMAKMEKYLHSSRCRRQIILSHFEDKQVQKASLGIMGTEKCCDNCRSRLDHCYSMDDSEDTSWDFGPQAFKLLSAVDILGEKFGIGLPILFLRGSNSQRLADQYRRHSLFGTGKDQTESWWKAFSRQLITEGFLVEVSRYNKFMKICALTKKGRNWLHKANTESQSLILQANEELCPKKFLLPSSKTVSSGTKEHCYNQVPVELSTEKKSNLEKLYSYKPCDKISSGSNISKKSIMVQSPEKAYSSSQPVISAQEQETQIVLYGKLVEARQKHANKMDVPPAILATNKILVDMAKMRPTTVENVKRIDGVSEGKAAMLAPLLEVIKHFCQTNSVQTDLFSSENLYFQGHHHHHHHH
In short: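 Helicase ATPase activity is measured at 25 °C over 60 min using 0.15 nM enzyme, 5 μM ATP and 0.1 nM DNA duplex, final DMSO 1%. ADP production is detected by luminescence, with IC50 derived by curve fitting.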

| Compound | IC50 |
| --- | --- |
| CS(=O)(=O)N1CCN(C(C(=O)N(Cc2ccncc2)C2C=CS(=O)(=O)C2)c2ccc(-n3cccc3)cc2)CC1 (stereo not drawn) [I-554, N-(1,1-dioxo-2,3-dihydro-1lambda6-thiophen-3-yl)-2-(4-methanesulfonylpiperazin-1-yl)-N-[(pyridin-4-yl)methyl]-2-[4-(1H-pyrrol-1-yl)phenyl]acetamide] | > 50 µM |
| COc1ccc(-c2ccc(CC(=O)N(Cc3ccncc3)C3C=CS(=O)(=O)C3)cc2)cc1 (stereo not drawn) [I-555, N-(1,1-dioxo-2,3-dihydro-1lambda6-thiophen-3-yl)-2-{4′-methoxy-[1,1′-biphenyl]-4-yl}-N-[(pyridin-4-yl)methyl]acetamide] | > 50 µM |
| COc1cccc(-c2ccc(CC(=O)N(Cc3ccncc3)C3C=CS(=O)(=O)C3)cc2)c1 (stereo not drawn) [I-556, N-(1,1-dioxo-2,3-dihydro-1lambda6-thiophen-3-yl)-2-{3′-methoxy-[1,1′-biphenyl]-4-yl}-N-[(pyridin-4-yl)methyl]acetamide] | > 50 µM |
| O=C(CN1CCN(c2ccccc2)CC1)N(Cc1ccncc1)C1C=CS(=O)(=O)C1 (stereo not drawn) [I-557, N-(1,1-dioxo-2,3-dihydro-1lambda6-thiophen-3-yl)-2-(4-phenylpiperazin-1-yl)-N-[(pyridin-4-yl)methyl]acetamide] | > 50 µM |
| O=C(Cc1ccc(-c2nnco2)cc1)N(Cc1ccncc1)C1C=CS(=O)(=O)C1 (stereo not drawn) [I-558, N-(1,1-dioxo-2,3-dihydro-1lambda6-thiophen-3-yl)-2-[4-(1,3,4-oxadiazol-2-yl)phenyl]-N-[(pyridin-4-yl)methyl]acetamide] | > 50 µM |
| CC(C)C(=O)NC(Cc1c[nH]c2ccccc12)C(=O)N(Cc1ccncc1)C1C=CS(=O)(=O)C1 (stereo not drawn) [I-559, N-(1,1-dioxo-2,3-dihydro-1lambda6-thiophen-3-yl)-3-(1H-indol-3-yl)-2-(2-methylpropanamido)-N-[(pyridin-4-yl)methyl]propanamide] | > 50 µM |
| O=C(CCc1cnc2n1CCCCC2)N(Cc1ccncc1)C1C=CS(=O)(=O)C1 (stereo not drawn) [I-560, N-(1,1-dioxo-2,3-dihydro-1lambda6-thiophen-3-yl)-3-{5H,6H,7H,8H,9H-imidazo[1,2-a]azepin-3-yl}-N-[(pyridin-4-yl)methyl]propanamide] | > 50 µM |
| CNC(=O)CC(C(=O)N(Cc1ccncc1)C1C=CS(=O)(=O)C1)c1ccc(-c2ccc(F)cc2)cc1 (stereo not drawn) [I-562, N-(1,1-dioxo-2,3-dihydro-1lambda6-thiophen-3-yl)-2-{4′-fluoro-[1,1′-biphenyl]-4-yl}-N′-methyl-N-[(pyridin-4-yl)methyl]butanediamide] | > 50 µM |
| CC(=O)NCC(C(=O)N(Cc1ccncc1)C1C=CS(=O)(=O)C1)c1ccc(-c2ccc(F)cc2)cc1 (stereo not drawn) [I-563, N-(1,1-dioxo-2,3-dihydro-1lambda6-thiophen-3-yl)-3-acetamido-2-{4′-fluoro-[1,1′-biphenyl]-4-yl}-N-[(pyridin-4-yl)methyl]propanamide] | > 50 µM |
| O=C(Cc1ccc(N2CCOCC2)cc1)N(Cc1ccncc1)C1C=CS(=O)(=O)C1 (stereo not drawn) [I-564, N-(1,1-dioxo-2,3-dihydro-1lambda6-thiophen-3-yl)-2-[4-(morpholin-4-yl)phenyl]-N-[(pyridin-4-yl)methyl]acetamide] | > 50 µM |
| Cn1cc(CCC(=O)N(Cc2ccncc2)C2C=CS(=O)(=O)C2)c2ccc(Br)cc21 (stereo not drawn) [I-565, 3-(6-bromo-1-methyl-1H-indol-3-yl)-N-(1,1-dioxo-2,3-dihydro-1lambda6-thiophen-3-yl)-N-[(pyridin-4-yl)methyl]propanamide] | > 50 µM |
| CC1=CC(N(Cc2ccccc2)C(=O)Cc2ccc(-n3cccc3)cc2)CS1(=O)=O (stereo not drawn) [I-566, 2-(4-(1H-pyrrol-1-yl)phenyl)-N-benzyl-N-(5-methyl-1,1-dioxido-2,3-dihydrothiophen-3-yl)acetamide] | > 50 µM |
| CN(C)Cc1cccn1-c1ccc(CC(=O)N(Cc2ccccc2)C2C=CS(=O)(=O)C2)cc1 (stereo not drawn) [I-567, N-benzyl-2-(4-{2-[(dimethylamino)methyl]-1H-pyrrol-1-yl}phenyl)-N-(1,1-dioxo-2,3-dihydro-1lambda6-thiophen-3-yl)acetamide] | > 50 µM |
| COCc1cccn1-c1ccc(CC(=O)N(Cc2ccccc2)C2C=CS(=O)(=O)C2)cc1 (stereo not drawn) [I-568, N-benzyl-N-(1,1-dioxo-2,3-dihydro-1lambda6-thiophen-3-yl)-2-{4-[2-(methoxymethyl)-1H-pyrrol-1-yl]phenyl}acetamide] | > 50 µM |
| CC(C)(C)OC(=O)N1CC(C(=O)N(Cc2ccncc2)C2C=CS(=O)(=O)C2)c2ccc(-c3ccc(F)cc3)cc21 (stereo not drawn) [I-569, tert-butyl 3-[(1,1-dioxo-2,3-dihydro-1lambda6-thiophen-3-yl)[(pyridin-4-yl)methyl]carbamoyl]-6-(4-fluorophenyl)-2,3-dihydro-1H-indole-1-carboxylate] | > 50 µM |
| O=C(C1CC(c2ccccc2)C1)N(Cc1ccncc1)C1C=CS(=O)(=O)C1 (stereo not drawn) [I-570, N-(1,1-dioxo-2,3-dihydro-1lambda6-thiophen-3-yl)-3-phenyl-N-[(pyridin-4-yl)methyl]cyclobutane-1-carboxamide] | > 50 µM |
| O=C(CN1CCC(c2ccccc2)CC1)N(Cc1ccncc1)C1C=CS(=O)(=O)C1 (stereo not drawn) [I-571, N-(1,1-dioxo-2,3-dihydro-1lambda6-thiophen-3-yl)-2-(4-phenylpiperidin-1-yl)-N-[(pyridin-4-yl)methyl]acetamide] | > 50 µM |
| O=C(CN1CCC(C(F)(F)F)CC1)N(Cc1ccncc1)C1C=CS(=O)(=O)C1 (stereo not drawn) [I-572, N-(1,1-dioxo-2,3-dihydro-1lambda6-thiophen-3-yl)-N-[(pyridin-4-yl)methyl]-2-[4-(trifluoromethyl)piperidin-1-yl]acetamide] | > 50 µM |
| COc1cc(CN(C(=O)Cc2ccc(-c3csc(C)n3)cc2F)C2C=CS(=O)(=O)C2)ccn1 (stereo not drawn) [I-573, N-(1,1-dioxo-2,3-dihydro-1lambda6-thiophen-3-yl)-2-[2-fluoro-4-(2-methyl-1,3-thiazol-4-yl)phenyl]-N-[(2-methoxypyridin-4-yl)methyl]acetamide] | > 50 µM |
| CNC(=O)CC(C(=O)N(Cc1ccnc(OC)c1)C1C=CS(=O)(=O)C1)c1ccc(-c2ccc(F)cc2)cc1 (stereo not drawn) [I-574, N-(1,1-dioxo-2,3-dihydro-1lambda6-thiophen-3-yl)-2-{4′-fluoro-[1,1′-biphenyl]-4-yl}-N-[(2-methoxypyridin-4-yl)methyl]-N′-methylbutanediamide] | > 50 µM |
| O=C(C1CC(Cc2ccccc2)=NO1)N(Cc1ccncc1)C1C=CS(=O)(=O)C1 (stereo not drawn) [I-579, 3-benzyl-N-(1,1-dioxo-2,3-dihydro-1lambda6-thiophen-3-yl)-N-[(pyridin-4-yl)methyl]-4,5-dihydro-1,2-oxazole-5-carboxamide] | > 50 µM |
| O=C(Cc1nc(C2CC2)cs1)N(Cc1ccncc1)C1C=CS(=O)(=O)C1 (stereo not drawn) [I-580, 2-(4-cyclopropyl-1,3-thiazol-2-yl)-N-(1,1-dioxo-2,3-dihydro-1lambda6-thiophen-3-yl)-N-[(pyridin-4-yl)methyl]acetamide] | > 50 µM |
| O=C(N(Cc1ccncc1)C1C=CS(=O)(=O)C1)C(F)(F)n1cc(-c2ccccc2)nn1 (stereo not drawn) [I-581, N-(1,1-dioxo-2,3-dihydro-1lambda6-thiophen-3-yl)-2,2-difluoro-2-(4-phenyl-1H-1,2,3-triazol-1-yl)-N-[(pyridin-4-yl)methyl]acetamide] | > 50 µM |
| O=C(Cc1cnn(C2CC2)c1)N(Cc1ccncc1)C1C=CS(=O)(=O)C1 (stereo not drawn) [I-582, 2-(1-cyclopropyl-1H-pyrazol-4-yl)-N-(1,1-dioxo-2,3-dihydro-1lambda6-thiophen-3-yl)-N-[(pyridin-4-yl)methyl]acetamide] | > 50 µM |
